According to patent US20260027068A1, “METHODS OF ADM[…]-KETAMINE” (Perception Neuroscience, Inc., priority 2022, published 2026):

Tests used:
subjects with TRD = experiment: MADRS total score after a single 40-minute IV infusion, double-blind placebo-controlled study in TRD; type: in vivo, human; conditions: for Change from Baseline MADRS Total Score, Adjusted mean (SE) / Diff. Adjusted mean (SE) R(−)ketamine - Placebo: MMRM
Procedure: This was a double-blind, randomized, placebo-controlled, multicenter study comprised of 3 phases: screening (up to 2 weeks [day-15 to day-2]), in-clinic treatment (day-1 to day 2; including double-blind treatment [day 1]), and post-treatment follow-up (7 and 14 days after infusion on days 8 and 15, respectively). The study consisted of 3 arms: placebo, R(−)-ketamine solution (30 mg), and R(−)-ketamine solution (60 mg.) A total of 101 adult subjects with TRD were randomly allocated in cohorts of 33-35 subjects/arm to the 3 arms of the study in a blinded manner.
The subjects were randomized within 14 days of screening (Visit 1). Subjects were admitted to the clinic the evening prior to study treatment administration (day-1, Visit 2) and underwent baseline testing to ensure continued study eligibility. Study treatments were infused IV over 40 minutes the next morning (day 1, Visit 2). Starting immediately prior to dosing, subjects were monitored closely for safety.
To determine the efficacy of two doses (30 mg and 60 mg) of intravenous (IV) R(−)-ketamine hydrochloride, the doses were administered as an IV infusion over 40 minutes. These doses are within the range shown to be well-tolerated in a Phase 1 study in healthy volunteers. […] The 10-item clinician-administered MADRS was designed to be used in subjects with MDD to measure the overall severity of depressive symptoms. The MADRS scale is validated, reliable, and acceptable to regulatory health authorities as a primary scale to determine efficacy in major depression.
Population: Subjects with TRD in the full analysis set (FAS) and analyzed according to their randomized treatment. The analysis population includes all randomized subjects who receive any amount of study treatment and have at least one postbaseline assessment available. Variable: Change in total MADRS score from baseline at 24 hours after the start of infusion.
MADRS total score was assessed at 2 and 4 hours, 7 and 14 days after the start of the infusion (days 8 and 15, respectively). Note, for the 2-hour and 4-hour recall periods, the sleep and appetite items were not assessed.
Proportion of subjects with ≥50% improvement in MADRS total score at 24 hours, 7 days, and 14 days after start of infusion (days 8 and 15, respectively).
Proportion of subjects with a MADRS total score≤10 at 24 hours, 7 days, and 14 days after start of infusion (days 8 and 15, respectively).
The 10-item MADRS was administered by the study staff to measure the overall severity of depressive symptoms. The MADRS total score was assessed at screening and baseline (Day 1 pre-dose). The primary efficacy endpoint of improvement in the MADRS total score was evaluated prior to discharge on Day 2 of Visit 2, 24 hours after the start of the infusion of study treatment. The MADRS total score was also assessed at 2 hours, 4 hours, 7 days (on Day 8), and 14 days (on Day 15) after the start of the infusion to evaluate the secondary efficacy endpoints of response (defined as ≥50% improvement in the MADRS total score from pre-dose) and remission (defined as MADRS total score≤10) in the improvement of depressive symptoms in the subjects. While the MADRS is typically used with a 7-day recall period, versions of the MADRS including 2-hour and […] recall periods were used in this study. (For the 2 hour and 4 hour periods, the sleep and appetite items were […]; pre-dose scores for these items obtained on the same day were carried forward).
The change from baseline in MADRS scores was summarized separately by treatment arm for each visit. Associated baseline scores were taken as the last corresponding measurement prior to the first dose of IMP in the treatment period (i.e., Visit 2, pre-dose). The primary endpoint of change from baseline MADRS total score at 24 hours post start of infusion was evaluated using a mixed effects model for repeated measure (MMRM) analysis with observed cases only. […]

rodents = conditions: 10 mg/kg; cited from earlier work
[1] = 30 mg, Day 1, 24 hours, primary endpoint
[2] = 60 mg, Day 1, 24 hours, primary endpoint

CN[C@@]1(c2ccccc2Cl)CCCCC1=O.Cl [R(−)-ketamine, (2R)-2-(2-chlorophenyl)-2-(methylamino)cyclohexan-1-one]
MADRS total score, Mean (subjects with TRD; 30 mg, 2 hours): 20.7 | MADRS total score, Median (subjects with TRD; 30 mg, 2 hours): 21.0 | MADRS total score, Mean (subjects with TRD; 30 mg, 4 hours): 19.2 | MADRS total score, Median (subjects with TRD; 30 mg, 4 hours): 19.0 | MADRS total score, Mean (subjects with TRD; 30 mg, 24 hours (Day 2)): 16.7 | MADRS total score, Median (subjects with TRD; 30 mg, 24 hours (Day 2)): 13.0 | Not-responder, % (subjects with TRD; 30 mg, Day 1, 2 hours): 72.7% | Responder (>=50% improvement of MADRS total score), % (subjects with TRD; 30 mg, Day 1, 2 hours): (27.3) % | adjusted odds ratio R-ket/placebo (95% CI) (subjects with TRD; 30 mg, Day 1, 2 hours): 1.667 (0.503, 5.520) | Change from Baseline MADRS Total Score, Adjusted mean (SE) (subjects with TRD; 30 mg, Day 1, 2 hours): −9.7 (1.35) | Diff. Adjusted mean (SE) R(−)ketamine - Placebo (subjects with TRD; 30 mg, Day 1, 2 hours): −0.6 (1.85) [−4.24, 3.08] | Not-responder, % (subjects with TRD; 30 mg, Day 1, 4 hours): 72.7% | Responder (>=50% improvement of MADRS total score), % (subjects with TRD; 30 mg, Day 1, 4 hours): (27.3) % | adjusted odds ratio R-ket/placebo (95% CI) (subjects with TRD; 30 mg, Day 1, 4 hours): 0.963 (0.317, 2.928) | Change from Baseline MADRS Total Score, Adjusted mean (SE) (subjects with TRD; 30 mg, Day 1, 4 hours): −11.2 (1.36) | Diff. Adjusted mean (SE) R(−)ketamine - Placebo (subjects with TRD; 30 mg, Day 1, 4 hours): −0.1 (1.86) [−3.81, 3.56] | Not-responder, % (subjects with TRD; 30 mg, Day 1, 24 hours): 42.4% | Responder (>=50% improvement of MADRS total score), % (subjects with TRD; 30 mg, Day 1, 24 hours): (57.6) % | adjusted odds ratio R-ket/placebo (95% CI) (subjects with TRD; 30 mg, Day 1, 24 hours): 1.418 (0.524, 3.837) | Change from Baseline MADRS Total Score, Adjusted mean (SE) (subjects with TRD; [1]): −13.7 (1.75) | Diff. Adjusted mean (SE) R(−)ketamine - Placebo (subjects with TRD; [1]): −0.0 (2.42) [−4.84, 4.77] | MADRS total score, Mean (subjects with TRD; 30 mg, Day 8): 19.9 | MADRS total score, Median (subjects with TRD; 30 mg, Day 8): 22.0 | Not-responder, % (subjects with TRD; 30 mg, Day 8): 70.0% | Responder (>=50% improvement of MADRS total score), % (subjects with TRD; 30 mg, Day 8): (30.0) % | adjusted odds ratio R-ket/placebo (95% CI) (subjects with TRD; 30 mg, Day 8): 1.040 (0.336, 3.212) | Change from Baseline MADRS Total Score, Adjusted mean (SE) (subjects with TRD; 30 mg, Day 8): −10.4 (1.81) | Diff. Adjusted mean (SE) R(−)ketamine - Placebo (subjects with TRD; 30 mg, Day 8): 1.0 (2.51) [−4.01, 5.94] | MADRS total score, Mean (subjects with TRD; 30 mg, Day 15): 22.8 | MADRS total score, Median (subjects with TRD; 30 mg, Day 15): 24.0 | Not-responder, % (subjects with TRD; 30 mg, Day 15): 83.9% | Responder (>=50% improvement of MADRS total score), % (subjects with TRD; 30 mg, Day 15): (16.1) % | adjusted odds ratio R-ket/placebo (95% CI) (subjects with TRD; 30 mg, Day 15): 0.621 (0.169, 2.282) | Change from Baseline MADRS Total Score, Adjusted mean (SE) (subjects with TRD; 30 mg, Day 15): −7.5 (1.82) | Diff. Adjusted mean (SE) R(−)ketamine - Placebo (subjects with TRD; 30 mg, Day 15): 2.4 (2.53) [−2.62, 7.40] | MADRS total score change from baseline, Mean (subjects with TRD; 30 mg, to 2 hours): −8.8 | MADRS total score change from baseline, Median (subjects with TRD; 30 mg, to 2 hours): −7.0 | MADRS total score change from baseline, Mean (subjects with TRD; 30 mg, to 4 hours): −10.4 | MADRS total score change from baseline, Median (subjects with TRD; 30 mg, to 4 hours): −10.0 | MADRS total score change from baseline, Mean (subjects with TRD; 30 mg, to 24 hours): −12.8 | MADRS total score change from baseline, Median (subjects with TRD; 30 mg, to 24 hours): −15.0 | MADRS total score change from baseline, Mean (subjects with TRD; 30 mg, to Day 8): −9.8 | MADRS total score change from baseline, Median (subjects with TRD; 30 mg, to Day 8): −7.0 | MADRS total score change from baseline, Mean (subjects with TRD; 30 mg, to Day 15): −6.6 | MADRS total score change from baseline, Median (subjects with TRD; 30 mg, to Day 15): −5.0 | MADRS total score, Mean (subjects with TRD; 60 mg, 2 hours): 18.4 | MADRS total score, Median (subjects with TRD; 60 mg, 2 hours): 20.0 | MADRS total score, Mean (subjects with TRD; 60 mg, 4 hours): 17.6 | MADRS total score, Median (subjects with TRD; 60 mg, 4 hours): 18.0 | MADRS total score, Mean (subjects with TRD; 60 mg, 24 hours (Day 2)): 15.1 | MADRS total score, Median (subjects with TRD; 60 mg, 24 hours (Day 2)): 16.0 | Not-responder, % (subjects with TRD; 60 mg, Day 1, 2 hours): 68.6% | Responder (>=50% improvement of MADRS total score), % (subjects with TRD; 60 mg, Day 1, 2 hours): (31.4) % | adjusted odds ratio R-ket/placebo (95% CI) (subjects with TRD; 60 mg, Day 1, 2 hours): 2.031 (0.634, 6.504) | Change from Baseline MADRS Total Score, Adjusted mean (SE) (subjects with TRD; 60 mg, Day 1, 2 hours): −12.0 (1.31) | Diff. Adjusted mean (SE) R(−)ketamine - Placebo (subjects with TRD; 60 mg, Day 1, 2 hours): −2.9 (1.82) [−6.55, 0.67] | Not-responder, % (subjects with TRD; 60 mg, Day 1, 4 hours): 62.9% | Responder (>=50% improvement of MADRS total score), % (subjects with TRD; 60 mg, Day 1, 4 hours): (37.1) % | adjusted odds ratio R-ket/placebo (95% CI) (subjects with TRD; 60 mg, Day 1, 4 hours): 1.536 (0.534, 4.416) | Change from Baseline MADRS Total Score, Adjusted mean (SE) (subjects with TRD; 60 mg, Day 1, 4 hours): −12.8 (1.32) | Diff. Adjusted mean (SE) R(−)ketamine - Placebo (subjects with TRD; 60 mg, Day 1, 4 hours): −1.7 (1.83) [−5.34, 1.92] | Not-responder, % (subjects with TRD; 60 mg, Day 1, 24 hours): 54.3% | Responder (>=50% improvement of MADRS total score), % (subjects with TRD; 60 mg, Day 1, 24 hours): (45.7) % | adjusted odds ratio R-ket/placebo (95% CI) (subjects with TRD; 60 mg, Day 1, 24 hours): 0.847 (0.318, 2.254) | Change from Baseline MADRS Total Score, Adjusted mean (SE) (subjects with TRD; [2]): −15.3 (1.69) | Diff. Adjusted mean (SE) R(−)ketamine - Placebo (subjects with TRD; [2]): −1.6 (2.38) [−6.35, 3.11] | MADRS total score, Mean (subjects with TRD; 60 mg, Day 8): 17.7 | MADRS total score, Median (subjects with TRD; 60 mg, Day 8): 21.0 | Not-responder, % (subjects with TRD; 60 mg, Day 8): 65.7% | Responder (>=50% improvement of MADRS total score), % (subjects with TRD; 60 mg, Day 8): (34.3) % | adjusted odds ratio R-ket/placebo (95% CI) (subjects with TRD; 60 mg, Day 8): 1.202 (0.412, 3.511) | Change from Baseline MADRS Total Score, Adjusted mean (SE) (subjects with TRD; 60 mg, Day 8): −12.7 (1.72) | Diff. Adjusted mean (SE) R(−)ketamine - Placebo (subjects with TRD; 60 mg, Day 8): −1.4 (2.44) [−6.26, 3.45] | MADRS total score, Mean (subjects with TRD; 60 mg, Day 15): 19.3 | MADRS total score, Median (subjects with TRD; 60 mg, Day 15): 22.0 | Not-responder, % (subjects with TRD; 60 mg, Day 15): 65.7% | Responder (>=50% improvement of MADRS total score), % (subjects with TRD; 60 mg, Day 15): (34.3) % | adjusted odds ratio R-ket/placebo (95% CI) (subjects with TRD; 60 mg, Day 15): 1.715 (0.559, 5.263) | Change from Baseline MADRS Total Score, Adjusted mean (SE) (subjects with TRD; 60 mg, Day 15): −11.1 (1.73) | Diff. Adjusted mean (SE) R(−)ketamine - Placebo (subjects with TRD; 60 mg, Day 15): −1.2 (2.46) [−6.09, 3.69] | MADRS difference from placebo (subjects with TRD; 60 mg, day 15): ~2 point | Statistical significance of the MADRS difference from placebo (subjects with TRD; 60 mg, day 15): not statistically significant | MADRS total score change from baseline, Mean (subjects with TRD; 60 mg, to 2 hours): −11.3 | MADRS total score change from baseline, Median (subjects with TRD; 60 mg, to 2 hours): −10.0 | MADRS total score change from baseline, Mean (subjects with TRD; 60 mg, to 4 hours): −12.1 | MADRS total score change from baseline, Median (subjects with TRD; 60 mg, to 4 hours): −12.0 | MADRS total score change from baseline, Mean (subjects with TRD; 60 mg, to 24 hours): −14.5 | MADRS total score change from baseline, Median (subjects with TRD; 60 mg, to 24 hours): −14.0 | MADRS total score change from baseline, Mean (subjects with TRD; 60 mg, to Day 8): −12.0 | MADRS total score change from baseline, Median (subjects with TRD; 60 mg, to Day 8): −10.0 | MADRS total score change from baseline, Mean (subjects with TRD; 60 mg, to Day 15): −10.4 | MADRS total score change from baseline, Median (subjects with TRD; 60 mg, to Day 15): −6.0 | Antidepressant effect compared with S(+)-ketamine (rodents): longer acting and more potent effects than S(+)-ketamine
